{"source": "paper PMC3111241", "about": "(Anesthesiology, 2009)", "key": {"Oral": {"assay": "Oral", "conditions": "human, plasma, 11 mg, control"}, "Intravenous": {"assay": "Intravenous", "conditions": "for EH (hepatic extraction) / AUC(0-inf) / Cmax: 6.0 mg IV methadone HCl; for AUC(0-t) / AUC(0-inf) / Cmax: human, plasma, iv, 6 mg; for AUC(0-t): AUC0-96, 6.0 mg IV methadone HCl; for AUC(0-inf): AUC0-∞"}, "[1]": {"system": "dark-adapted pupil diameter (miosis)", "assay": "Methadone pupil effect", "type": "in vivo, human", "conditions": "for AUEC0-∞ / Maximum miosis: 6.0 mg IV and 11.0 mg oral methadone HCl"}, "CYP3A": {"system": "CYP3A", "conditions": "in vivo; cited from earlier work"}, "[2]": {"conditions": "steady-state ritonavir/indinavir"}}}
{"smiles": "CCC(=O)C(C[C@H](C)N(C)C)(c1ccccc1)c1ccccc1", "note": "[S-methadone]", "values": [{"measurement": "AUC(0-t)", "setting": "Oral; AUC0-96, 11.0 mg oral methadone HCl", "result": "639 ± 165", "unit": "ng·h/mL"}, {"measurement": "AUC(0-inf)", "setting": "Oral; AUC0-∞, 11.0 mg oral methadone HCl", "result": "710 ± 185", "unit": "ng·h/mL"}, {"measurement": "Cmax", "setting": "Oral; Cmax, 11.0 mg oral methadone HCl", "result": "23 ± 6", "unit": "ng/mL"}, {"measurement": "EH (hepatic extraction)", "setting": "Intravenous; acute ritonavir/indinavir", "result": "0.10 ± 0.04"}, {"measurement": "EH (hepatic extraction)", "setting": "Intravenous; control", "result": "0.08 ± 0.02"}, {"measurement": "EH (hepatic extraction)", "setting": "Intravenous; [2]", "result": "0.10 ± 0.04"}, {"measurement": "AUC(0-t)", "setting": "Intravenous; acute ritonavir/indinavir", "result": "353 ± 150", "unit": "ng·h/mL"}, {"measurement": "AUC(0-t)", "setting": "Intravenous; control", "result": "401 ± 81", "unit": "ng·h/mL"}, {"measurement": "AUC(0-t)", "setting": "Intravenous; [2]", "result": "377 ± 170", "unit": "ng·h/mL"}, {"measurement": "AUC(0-inf)", "setting": "Intravenous; acute ritonavir/indinavir", "result": "390 ± 178", "unit": "ng·h/mL"}, {"measurement": "AUC(0-inf)", "setting": "Intravenous; control", "result": "436 ± 91", "unit": "ng·h/mL"}, {"measurement": "AUC(0-inf)", "setting": "Intravenous; [2]", "result": "406 ± 185", "unit": "ng·h/mL"}, {"measurement": "Cmax", "setting": "Intravenous; acute ritonavir/indinavir", "result": "69 ± 26", "unit": "ng/mL"}, {"measurement": "Cmax", "setting": "Intravenous; control", "result": "90 ± 53", "unit": "ng/mL"}, {"measurement": "Cmax", "setting": "Intravenous; [2]", "result": "80 ± 33", "unit": "ng/mL"}]}
{"smiles": "CCC(=O)C(CC(C)N(C)C)(c1ccccc1)c1ccccc1", "note": "(centres unmarked) [methadone]", "values": [{"measurement": "AUEC0-∞", "setting": "[1]; acute ritonavir/indinavir", "result": "65 ± 26", "unit": "mm/h"}, {"measurement": "Maximum miosis", "setting": "[1]; acute ritonavir/indinavir", "result": "3.5 ± 0.7", "unit": "mm"}, {"measurement": "AUEC0-∞", "setting": "[1]; control", "result": "52 ± 24", "unit": "mm/h"}, {"measurement": "Maximum miosis", "setting": "[1]; control", "result": "2.9 ± 1.0", "unit": "mm"}, {"measurement": "AUEC0-∞", "setting": "[1]; [2]", "result": "48 ± 25", "unit": "mm/h"}, {"measurement": "Maximum miosis", "setting": "[1]; [2]", "result": "3.2 ± 0.8", "unit": "mm"}, {"measurement": "methadone miosis and concentration-effect relationships, change by acute or steady-state ritonavir/indinavir", "setting": "[1]; in vivo", "result": "not significantly changed"}]}
{"smiles": "Cc1c(O)cccc1C(=O)N[C@@H](CSc1ccccc1)[C@H](O)CN1C[C@H]2CCCC[C@H]2C[C@H]1C(=O)NC(C)(C)C", "note": "[nelfinavir]", "values": [{"measurement": "inhibition of hepatic and first-pass CYP3A", "setting": "CYP3A", "result": "> 75", "unit": "%"}]}
